Test results: patent publication US20250099420A1, “SMALL MOLECULE MODULATORS OF GPR139 COMPLEX” (University of Florida Research Foundation, Incorporated, priority 2022, published 2025)
Read-outs that look alike come from different tables or passages of the source.

Key:
parental HEK cells = test: HEK parental Agonist Counterscreen Assay (non-transfected cells); type: cell-based; settings: for Averaged Max % Response (±St. Dev.): activity relative to known control
From the text: The high control for the agonist counterscreen was Forskolin not acetylcholine.

GPR139 = biological target: T1, GPR139 (Homo sapiens, UniProt Q6DWJ6); test: GPR139 Agonist titration / agonist counterscreen assay (calcium detection, HEK-GPR139 cells); type: cell-based; parameters: expressed in transfected cells; host or cells: HEK Aequorin cells, Maxcyte transient transfection; settings: GPR139 Agonist Activity; for Averaged Max % Response (±St. Dev.): activity relative to known control; for EC50: read-out: EC50
T1 sequence (Q6DWJ6 1-353): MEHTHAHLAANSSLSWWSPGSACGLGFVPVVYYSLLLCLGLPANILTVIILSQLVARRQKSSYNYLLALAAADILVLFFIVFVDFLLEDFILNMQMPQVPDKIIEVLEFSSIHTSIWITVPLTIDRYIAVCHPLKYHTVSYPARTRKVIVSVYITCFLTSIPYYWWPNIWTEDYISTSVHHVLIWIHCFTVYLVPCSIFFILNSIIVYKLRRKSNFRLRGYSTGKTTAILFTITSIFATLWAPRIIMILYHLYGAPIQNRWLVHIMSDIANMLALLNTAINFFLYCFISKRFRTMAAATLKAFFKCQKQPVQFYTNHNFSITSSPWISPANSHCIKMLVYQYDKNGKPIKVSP
Procedure: GPR activity was assessed using a calcium detection assay. […] Negative control samples were treated with DMSO. […] Intracellular calcium was measured using Calcium 5.

[1] = values printed in E-notation without unit
[2] = HEK Agonist Activity section of Table 4 (parental HEK counterscreen)
[3] = Homo sapiens, HEK293, HEK Agonist Activity, parental non-transfected HEK cells
[4] = Homo sapiens, HEK293, HEK Agonist Activity section of Table 4 (parental HEK counterscreen)

SMILES	Lipophilic Efficiency (logD) (parental HEK cells; HEK Agonist Activity)	Lipophilic Efficiency (logP) (parental HEK cells; HEK Agonist Activity)	Averaged Max % Response (±St. Dev.) (parental HEK cells; HEK Agonist Activity) [%]	Averaged Max % Response (±St. Dev.) (GPR139) [%]	Lipophilic Efficiency (logD) (GPR139; based on logD)	Lipophilic Efficiency (logP) (GPR139; based on logP)	Hill Slope (GPR139; fitted dose-response curve)	Efficiency Ligand (GPR139; ligand efficiency)	EC50 (GPR139; [1]) [nM]	Lipophilic Efficiency (logD) (parental HEK cells; HEK Agonist Activity section)	Lipophilic Efficiency (logP) (parental HEK cells; HEK Agonist Activity section)	Averaged Max % Response (±St. Dev.) (parental HEK cells; HEK Agonist Activity section) [%]	EC50 (parental HEK cells; [3]) [nM]	EC50 (parental HEK cells; [4]) [nM]	further results
O=C(CC(c1ccccc1)c1ccccc1)Oc1coc(CSc2ncccn2)cc1=O [SR-01000020502]	0.13	0.13	4.84 ± 4.90	91.42 ± 14.52	2.69	2.69	1.13	0.32	38.7						EC50 (parental HEK cells; HEK Agonist Activity, parental non-transfected HEK cells): > 13900 nM
Cc1ccc(SCC(=O)Nc2nnc(-c3ccco3)o2)cc1 [SR-01000021414]				97.10 ± 8.84	4.46	4.46	0.83	0.44	119	2.38	2.38	22.31 ± 11.03			EC50 (parental HEK cells; [2]): > 14300 nM
Cc1ccc(SCC(=O)Nc2nnc(-c3ccccc3Cl)o2)cc1 [SR-01000021416]	0.84	0.84	23.13 ± 4.18	122.23 ± 2.65	3.53	3.53	0.24	0.44	29.1				> 14100		
O=C(CSc1ccc(Cl)cc1)Nc1nnc(-c2ccco2)o1 [SR-01000021433]				111.88 ± 11.27	4.59	4.59	0.56	0.45	71.8	2.29	2.29	27.04 ± 4.04		> 14300	
O=C(CSc1ccc(Cl)cc1)Nc1nnc(-c2ccc(F)cc2)o1 [SR-01000021435]				162.60 ± 13.73	3.60	3.60		0.42	> 57.4	1.22	1.22	24.48 ± 11.03			EC50 (parental HEK cells; [2]): > 13900 nM
O=C(O)COc1cc(Br)c(Br)c(Br)c1O [SR-01000028953]				88.05 ± 4.24						5.29	1.52	1.36 ± 9.86		> 15300	Efficiency Ligand (GPR139): 0.54; Hill Slope (GPR139): 0.80; Lipophilic Efficiency (logD) (GPR139): 6.30; Lipophilic Efficiency (logP) (GPR139): 2.53
O=C(CN1CCCc2ccccc21)NNC(=O)Nc1ccc(Cl)c(Cl)c1 [SR-01000029575]				96.54 ± 7.56	3.35	3.34	0.79	0.38	78.1	1.09	1.08	7.49 ± 5.72		> 14300	
CC(=O)c1cccc(C(C)(C)CC(=O)CNC(=O)c2ccccc2)c1 [SR-01000031674]	2.46	2.46	35.54 ± 2.15	113.33 ± 7.65	6.57	6.57	0.44	0.50					> 15000		
COC(=O)c1ccc(CSc2nnc(N)s2)cc1 [SR-01000031964]				89.11 ± 2.96						2.26	2.26	13.73 ± 5.82			EC50 (parental HEK cells; [2]): > 16000 nM; Efficiency Ligand (GPR139): 0.51; Hill Slope (GPR139): 1.27; Lipophilic Efficiency (logD) (GPR139): 4.00; Lipophilic Efficiency (logP) (GPR139): 4.00; EC50 (GPR139; HEK-GPR139 cells): 290 nM
COc1ccc(CCNC(=O)CC(=O)NCCc2ccc(OC)cc2)cc1 [SR-01000034566]				100.73 ± 15.83	4.65	4.65	0.96	0.36	137	2.60	2.60	−4.69 ± 7.66			EC50 (parental HEK cells; [2]): > 15200 nM
Nc1ccc(C(=O)OCC(=O)NC2CCCc3ccccc32)cc1[N+](=O)[O-] (centres unmarked) [SR-01000034627]				64.98 ± 9.75	3.27	3.27	2.03	0.34	245	1.47	1.47	2.09 ± 12.58		> 15300	
CC(NC(=O)COC(=O)c1ccccc1C(F)(F)F)c1ccccc1 (centres unmarked) [SR-01000037440]	0.95	0.95	16.47 ± 8.15	90.68 ± 18.21	3.59	3.59	0.54	0.42	32.9				> 14400		
O=C(CN1C(=O)NC2(CCc3ccccc3C2)C1=O)Nc1ccccc1Oc1ccccc1 (centres unmarked) [SR-01000039980]	0.84	0.84	39.53 ± 8.33	134.67 ± 13.58	4.01	4.01	0.55	0.34	10.4				> 15300		
CCn1c(C)nc2cc(C(=O)NNC(=O)Cc3cccc4ccccc34)ccc21 [SR-01000041378]	1.79	1.79	−2.48 ± 2.57	94.48 ± 15.59	4.29	4.29	0.61	0.35	46.1				> 14600		
Cc1ccc(CNC(=O)COC(=O)c2ccc(Br)o2)cc1 [SR-01000042100]				100.32 ± 4.53	4.12	4.12	0.79	0.45		2.20	2.20	17.67 ± 3.11		> 14400	
